Laboratory results: ChEMBL document CHEMBL5050840, “3-(1-oxoisoindolin-2-yl)piperidine-2,6-dione derivatives and uses thereof” (2021)
The source made the active and inactive calls. No cut-off for these calls is given here.

How the values were obtained:
[1] = test system: GripTite 293 MSR; assay: Induction of IKZF2 degradation in human GripTite 293 MSR cells at 10 uM assessed as reduction in IKZF2 level measured by PathHunter assay relative to control; type: cell-based; design: scale not given: the % may be the effect or the level left
[2] = test system: PBMC; assay: Effect of compound on human PBMCs at 10 uM assessed as decrease in CD4+ T cells proliferation; type: functional, cell-based
[3] = test system: PBMC; assay: Effect of compound on human PBMCs at 10 uM assessed as fold increase in IL-2 producing cells; type: functional, cell-based
[4] = Induction of IKZF2 degradation in human GripTite 293 MSR cells assessed as reduction in IKZF2 level measured by PathHunter assay; type: cell-based

SMILES | EC50 [4] [nM] | other results
CN1CC=C(c2ccc3c(c2)CN(C2CCC(=O)NC2=O)C3=O)CC1 (stereo not given) |  | Activity [1]: 35%
O=C1CCC(N2Cc3cc(C4CCN(Cc5ccccc5)CC4)ccc3C2=O)C(=O)N1 (stereo not given) |  | Activity [2]: Active; Activity [3]: Active
CC(c1ccccc1)N1CCC(c2ccc3c(c2)CN(C2CCC(=O)NC2=O)C3=O)CC1 (racemic) | 7 | 
O=C1CCC(N2Cc3cc(C4CCN([C@@H](CO)c5ccccc5)CC4)ccc3C2=O)C(=O)N1 (single isomer, unassigned) | 590 | 
C[C@H](c1ccccc1)N1CCC(c2ccc3c(c2)CN(C2CCC(=O)NC2=O)C3=O)CC1 (single isomer, unassigned) | 17 | 
CC(c1ccccc1)N1CCC(c2ccc3c(c2)CN(C2CCC(=O)NC2=O)C3=O)CC1 (single isomer, unassigned) | 9 | 
O=C1CCC(N2Cc3cc(C4CCN(C(CO)c5ccccc5)CC4)ccc3C2=O)C(=O)N1 (single isomer, unassigned) | 850 | 
O=C1CCC(N2Cc3cc(C4CCCN(Cc5ccccc5)CC4)ccc3C2=O)C(=O)N1 (single isomer, unassigned; form 1) | 170 | 
O=C1CCC(N2Cc3cc(C4CCCN(Cc5ccccc5)CC4)ccc3C2=O)C(=O)N1 (single isomer, unassigned; form 2) | 210 | 
